In publication PMC7822874, “Chemoprotective antimalarials identified through quantitative high-throughput screening of Plasmodium blood and liver stage parasites” (Scientific Reports, 2021):
Values joined by “and” are separate entries in the source; they are usually repeats but may differ in a detail not shown here. Identical values can stand only once. Like-named read-outs stand apart in the source and are kept apart here.

Columns and labels:
[1] = system: P. falciparum Dd2 (clone B2) asexual blood stage parasites; assay: P. falciparum Dd2 asexual blood stage SYBR Green-I 72 h proliferation assay (qHTS); format: cell-based, Plasmodium falciparum; settings: Plasmodium falciparum
[2] = system: P. falciparum Dd2 Cytb G131S; assay: SYBR Green ABS proliferation assay, NCGC00374598 selected clone C11; format: cell-based, Plasmodium falciparum; settings: for AC50: Plasmodium falciparum
Method in brief: (§1)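 Drug-selected P. falciparum Dd2 clones carrying Cytb mutations, obtained by limiting-dilution cloning, grown in RBCs at 37 °C under 5% CO2/5% O2/90% N2. Growth read by SYBR Green-I fluorescence at 72 h and normalized to controls.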

[3] = system: P. falciparum Dd2 Cytb V259L; assay: SYBR Green ABS proliferation assay, NCGC00473217 selected clone F06; format: cell-based, Plasmodium falciparum; settings: for AC50: Plasmodium falciparum
Method in brief: as §1

[4] = system: P. falciparum Dd2 Cytb A122D; assay: SYBR Green ABS proliferation assay, NCGC00473217 selected clone F12; format: cell-based, Plasmodium falciparum; settings: for AC50: Plasmodium falciparum
Method in brief: as §1

[5] = system: P. falciparum Dd2 Cytb F123L; assay: SYBR Green ABS proliferation assay, NCGC00473217 selected clone G08; format: cell-based, Plasmodium falciparum; settings: for AC50: Plasmodium falciparum
Method in brief: as §1

[6] = system: T1, Plasmodium falciparum Dd2-attB (parental line), asexual blood stages; assay: microbe, parasite or virus in culture; design: replicate k of 3 (each line is one of three independent assays; the three lines of one compound and parasite line follow each other); settings: 72 h; n = 1
T1 construct: Dd2-attB, the isogenic parental line
Method in brief: (§2)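 The transgenic line overexpresses fumarate-dependent yeast DHODH, bypassing parasite mETC and ubiquinone-dependent parasite DHODH. A subset of compounds was run in three independent assays on both lines, and line differences were tested by two-sided Student's t-test.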

[7] = system: T2, Plasmodium falciparum Dd2-attB-ScDHODH (transgenic line expressing yeast DHODH), asexual blood stages; assay: organism not typed; design: replicate k of 3 (each line is one of three independent assays; the three lines of one compound and parasite line follow each other); settings: 72 h, n = 1
T2 construct: Dd2-attB-ScDHODH, the transgenic line that expresses yeast DHODH
Method in brief: as §2

[8] = DD2, Dd2 parental, Hill fit, averaged from three independent replicates, top concentration 29 µM, read-out: Average AC50 (Log[M]), Dd2 (converted)
[9] = DD2, […], averaged from three independent replicates, top concentration 29 µM, read-out: Average AC50 (Log[M]), NCGC00374598 clone C11 (Cytb G131S) (converted)
[10] = DD2, […], averaged from three independent replicates, top concentration 29 µM, read-out: Average AC50 (Log[M]), NCGC00473217 clone F06 (Cytb V259L) (converted)
[11] = DD2, […], averaged from three independent replicates, top concentration 29 µM, read-out: Average AC50 (Log[M]), NCGC00473217 clone F12 (Cytb A122D) (converted)
[12] = DD2, […], averaged from three independent replicates, top concentration 29 µM, read-out: Average AC50 (Log[M]), NCGC00473217 clone G08 (Cytb F123L) (converted)
[13] = DD2, 72 h, SYBR Green 72 h, WT Dd2-B2, read-out: AC50 Log[M] ± SD, Dd2-B2 (parental line) (converted)
[14] = DD2, Suppl Table 6, read-out: AC50 (mM), WT (Dd2-B2)
[15] = DD2, NCGC00374598 selected clone, read-out: AC50 Log[M] ± SD, Cytb G131S (converted)
[16] = DD2, Suppl Table 6, read-out: AC50 (mM), Dd2 Cytb G131S
[17] = DD2, NCGC00473217 selected clone, read-out: AC50 Log[M] ± SD, Cytb V259L (converted)
[18] = DD2, Suppl Table 6, read-out: AC50 (mM), Dd2 Cytb V259L
[19] = DD2, NCGC00473217 selected clone, read-out: AC50 Log[M] ± SD, Cytb A122D (converted)
[20] = DD2, Suppl Table 6, read-out: AC50 (mM), Dd2 Cytb A122D
[21] = DD2, NCGC00473217 selected clone, read-out: AC50 Log[M] ± SD, Cytb F123L (converted)
[22] = DD2, Suppl Table 6, read-out: AC50 (mM), Dd2 Cytb F123L

| SMILES | AC50 [1, 8] [M] | AC50 [2, 9] [M] | AC50 [3, 10] [M] | AC50 [4, 11] [M] | AC50 [5, 12] [M] | other results |
| --- | --- | --- | --- | --- | --- | --- |
| CCCN1C(CC(C)C)=N[S+](=O)([O-])c2cc(NC(=O)c3ccc(C)o3)ccc21 [NCGC00510048-01] | 9.66e-06 | 7.38e-06 | 7.38e-06 | 7.96e-06 | 6.58e-06 | Individual replicates / Log AC50 (M) [6]: -5.5486 Log AC50 (M) and -5.3486 Log AC50 (M) and -5.1986 Log AC50 (M); Individual replicates / Log AC50 (M) [7]: -5.1486 Log AC50 (M); AC50 ([7]; read-out: Individual replicates / Log AC50 (converted)): 7.1 µM |
| Cc1cc(Nc2ccc(S(F)(F)(F)(F)F)cc2)n2nc(C(C)(F)F)nc2n1 [DSM265, reference compound] |  |  |  |  |  | AC50 [1, 13]: 3.8e-08 M; AC50 [1, 14]: 3.8e-08 M; AC50 [2, 15]: 2.4e-08 M; AC50 [2, 16]: 2.4e-08 M; susceptibility of V259L variant compared to parental line [3]: unchanged; AC50 [3, 17]: 3.16e-08 M; AC50 [3, 18]: 3.16e-08 M; susceptibility of A122D mutant compared to parental line [4]: significantly more susceptible; AC50 [4, 19]: 1.41e-08 M; AC50 [4, 20]: 1.41e-08 M; susceptibility of F123L mutant compared to parental line [5]: significantly more susceptible; AC50 [5, 21]: 1.95e-08 M; AC50 [5, 22]: 1.95e-08 M |
| CCCN1C(CC(C)C)=N[S+](=O)([O-])c2cc(NC(=O)c3ncco3)ccc21 [NCGC00521053-01] | 1.08e-05 | 1.12e-05 | 9.66e-06 | 7.96e-06 | 1.42e-05 |  |
| CCCN1C(CC(C)C)=N[S+](=O)([O-])c2cc(NC(=O)c3ccc(F)s3)ccc21 [NCGC00523537-01] | 1.12e-07 | 3.17e-07 | 8.93e-07 | 7.96e-07 | 3.85e-06 |  |
| CCCN1C(CC(C)C)=N[S+](=O)([O-])c2cc(N[S+](=O)([O-])c3ccc4ccccc4c3)ccc21 [NCGC00521141-01] | 1.26e-05 | 7.1e-06 | 5.32e-06 | 1.12e-05 | 7.1e-07 |  |
| CCCN1C(CC(C)C)=N[S+](=O)([O-])c2cc(NC(=O)c3ccon3)ccc21 [NCGC00521044-01] | 1.26e-05 | 6.7e-06 | 7.96e-06 | 9.46e-06 | 4.15e-07 |  |
| CCCN1C(CC(C)C)=N[S+](=O)([O-])c2cc(NC(=O)c3ccccc3OC(F)(F)F)ccc21 [NCGC00531535-01] | 1.59e-05 | 8.93e-06 | 9.29e-06 | 1.08e-05 | 1.04e-05 |  |
| CCCN1C(CC(C)C)=N[S+](=O)([O-])c2cc(NC(=O)COc3ccccc3)ccc21 [NCGC00521094-01] | 7.67e-06 | 8.28e-06 | 6.84e-06 | 1.36e-05 | 6.1e-06 |  |
| CCCN1C(CC(C)C)=N[S+](=O)([O-])c2cc(NC(=O)c3ccccn3)ccc21 [NCGC00521133-01] | 9.29e-06 | 1.04e-06 | 7.67e-06 | 1.89e-06 | 1.04e-05 |  |
| CCCN1C(CC(C)C)=N[S+](=O)([O-])c2cc(NC(=O)c3cncnc3)ccc21 [NCGC00521134-01] | 8.93e-06 | 4.48e-06 | 1.59e-06 | 3.77e-06 | 4.48e-06 |  |
| CCCN1C(CC(C)C)=N[S+](=O)([O-])c2cc(NC(=O)c3nccs3)ccc21 [NCGC00521040-01] | 9.29e-06 | 8.28e-07 | 1.31e-05 | 7.1e-06 | 6.7e-06 |  |
| CCCN1C(CC(C)C)=N[S+](=O)([O-])c2cc(NC(=O)c3sccc3Cl)ccc21 [NCGC00531529-01] | 2.24e-06 | 5.86e-07 | 3.7e-06 | 6.1e-07 | 2.24e-06 |  |
| CCCN1C(CC(C)C)=N[S+](=O)([O-])c2cc(NC(=O)c3cc4c(s3)CCC4)ccc21 [NCGC00521150-01] | 1.59e-05 | 1.04e-05 | 1.12e-05 | 1.59e-05 | 1.12e-05 |  |
| CCCN1C(CC(C)C)=N[S+](=O)([O-])c2cc(NC(=O)C3CCCCC3)ccc21 [NCGC00521107-01] | 6.32e-06 | 6.32e-06 | 5.02e-06 | 1.04e-05 | 8.93e-06 |  |
| O=C1C(O)=C([C@H]2CC[C@H](c3ccc(Cl)cc3)CC2)C(=O)c2ccccc21 [Atovaquone, atovaquone, reference compound] |  |  |  |  |  | AC50 [1, 13]: 3.31e-09 M; AC50 [1, 14]: 3.3e-09 M; potency in G131S mutant lines compared to parental line [2]: potency was not compromised; AC50 [2, 15]: 2.19e-09 M; AC50 [2, 16]: 2.2e-09 M; susceptibility of V259L variant compared to parental line [3]: significantly less susceptible; AC50 [3, 17]: 2.34e-08 M; AC50 [3, 18]: 2.34e-08 M; susceptibility of A122D mutant compared to parental line [4]: significantly more susceptible; AC50 [4, 19]: 5.5e-10 M; AC50 [4, 20]: 5.5e-10 M; susceptibility of F123L mutant compared to parental line [5]: significantly more susceptible; AC50 [5, 21]: 8.71e-10 M; AC50 [5, 22]: 9e-10 M |
| CCCN1C(CC(C)C)=N[S+](=O)([O-])c2cc(NC(=O)c3ccc(F)cc3F)ccc21 [NCGC00523543-01] | 3.99e-06 | 2e-06 | 3.36e-06 | 1.93e-06 | 3.56e-07 |  |
| CCCN1C(CC(C)C)=N[S+](=O)([O-])c2cc(NC(=O)c3coc4ccccc34)ccc21 [NCGC00521147-01] | 7.38e-06 | 8.43e-06 | 2.24e-06 | 5.64e-06 | 8.93e-06 |  |
| CCCN1C(CC(C)C)=N[S+](=O)([O-])c2cc(NC(=O)c3ncccn3)ccc21 [NCGC00521149-01] | 1.12e-05 | 1.59e-05 | 1.19e-05 | 1.04e-05 | 1.42e-05 |  |
| CCCN1C(CC(C)C)=N[S+](=O)([O-])c2cc(NC(=O)C3CCN(C)CC3)ccc21 [NCGC00521111-01] | 2.08e-05 | 1.17e-06 | 1.53e-05 | 3.77e-07 | 1.22e-05 |  |
| CCCN1C(CC(C)C)=N[S+](=O)([O-])c2cc(NC(=O)C3CCC3)ccc21 [NCGC00521095-01] | 3.17e-06 | 3.36e-07 | 2.99e-06 | 1e-05 | 6.7e-06 |  |
| CCCN1C(CC(C)C)=N[S+](=O)([O-])c2cc(NC(=O)Nc3ccccc3)ccc21 [NCGC00521878-01] | 3.56e-06 | 7.96e-06 | 1.04e-05 | 8.28e-06 | 1.59e-05 |  |
| CCCN1C(CC(C)C)=N[S+](=O)([O-])c2cc(NC(=O)c3ccc(C)s3)ccc21 [NCGC00510977-01] | 8.61e-06 | 8.93e-06 | 1.04e-05 | 7.96e-06 | 8.93e-06 |  |
| CCCN1C(CC(C)C)=N[S+](=O)([O-])c2cc(NC(=O)c3cc(F)cc(F)c3)ccc21 [NCGC00523544-01] | 5.43e-06 | 5.02e-06 | 7.1e-06 | 9.66e-06 | 1.08e-05 |  |
| CCCN1C(CC(C)C)=N[S+](=O)([O-])c2cc(NC(=O)c3sccc3C)ccc21 [NCGC00521035-01] | 1.59e-06 | 1.65e-06 | 6.84e-06 | 2.82e-06 | 9.46e-06 |  |
| CCCN1C(CC(C)C)=N[S+](=O)([O-])c2cc(NC(=O)c3ccccc3)ccc21 [NCGC00510420-02] | 1e-06 | 4.23e-07 | 1.12e-06 | 1.06e-06 | 2.12e-08 |  |
| CCCN1C(CC(C)C)=N[S+](=O)([O-])c2cc(NC(=O)c3c(Cl)cnn3C)ccc21 [NCGC00521056-01] | 1.65e-05 | 1.12e-05 | 8.61e-06 | 6.32e-06 | 1.22e-05 |  |
| CCCN1C(CC(C)C)=N[S+](=O)([O-])c2cc(NC(=O)c3cn(-c4ccccc4)cn3)ccc21 [NCGC00521102-01] | 7.67e-06 | 2.62e-07 | 2.99e-06 | 3.56e-08 | 3.56e-06 |  |
